What was measured:
MYB [1] = assay: Gene panel canonical junction qPCR assay, MYB CJ mRNA (Table 7); assay type: cell-based; settings: Homo sapiens, read-out: MYB CJ mRNA decrease IC50
Experimental: (§1) Compounds described herein were used to modulate RNA transcript abundance in cells. The expression of a target mRNA was measured by detecting the formation of an exon-exon junction in the canonical transcript (CJ). A compound mediated exon-inclusion event was detected by observing an increase in formation OF A new junction with an alternative exon (AJ). Real-time qPCR assays were used to detect these splicing switches and interrogate the potency of various compounds towards different target Genes. A high-throughput real time quantitative PCR (RT-qPCR) assay was developed to measure these two isoforms of the mRNA (CJ and AJ) for exemplary genes, such as HTT, SMN2, and MYB, together with a control housekeeping gene, GAPDH or GUSB or PPIA, used for normalization. Briefly, the A673 or K562 cell line was treated with various compounds described herein (e.g., compounds of Formula (i)). After treatment, the levels of the HTT, MYB, or SMN2 mRNA targets were determined from each sample of cell lysate by cDNA synthesis followed by qPCR.
(§2) The data analysis was performed by first determining the ΔCt vs the housekeeper gene. This ΔCt was then normalized against the DMSO control (ΔΔCt) and converted to RQ (relative quantification) using the 2^(−ΔΔCt) equation. The RQ were then converted to a percentage response by arbitrarily setting an assay window of 3.5 and 4.0 ΔCt for HTT-CJ and MYB-CJ respectively and an assay window of 9 and 3 ΔCt for HTT-AJ and MYB-AJ in 96 well format (50,000 K562 cells/well and 15,000 A673 cells per well) and an assay window of 3 and 4 ΔCt for HTT-CJ and MYB-CJ respectively and an assay window of 5 and 3 ΔCt for HTT-AJ and MYB-AJ respectively in 384 well format (8,000 K562 cells/well example). […] The percentage response was then fitted to the 4 parametric logistic equation to evaluate the concentration dependence of compound treatment. The increase in AJ mRNA is reported as AC50 (compound concentration having 50% response in AJ increase) while the decrease in CJ mRNA levels is reported as IC50 (compound concentration having 50% response in CJ decrease).
(§3) Additional studies were carried out for a larger panel of genes using the protocol provided above. The junction between flanking upstream and downstream exons was used to design canonical junction qPCR assays. At least one of the forward primer, reverse primer or the CY5-labeled 5′ nuclease probe (with 3′ quencher such as ZEN/Iowa Black FQ) was designed to overlap with the exon junction to capture the CJ mRNA transcript. BLAST was used to confirm the specificity of the probeset and parameters such as melting temperature, GC content, amplicon size, and primer dimer formation are considered during their design. Data for the decrease in CJ mRNA levels for four exemplary genes (HTT, SMN2, MYB, and Target C) analyzed in this panel are reported as IC50 (compound concentration having 50% response in CJ decrease).

MYB [2] = assay: RT-qPCR splicing assay, MYB AJ/CJ mRNA; assay type: cell-based; settings: Homo sapiens, A673 or K562 cells, 24 hours; for IC50: decrease in canonical junction mRNA; for AC50: increase in alternative junction mRNA
Experimental: as §1
(§4) The A673 cell line was cultured in DMEM with 10% FBS. Cells were diluted with full growth media and plated in a 96-well plate (15,000 cells in 100 ul media per well). The plate was incubated at 37° C. with 5% CO2 for 24 hours to allow cells to adhere. An 11-point 3-fold serial dilution of the compounds was made in DMSO then diluted in media in an intermediate plate. Compounds were transferred from the intermediate plate to the cell plate with the top dose at a final concentration of 10 uM in the well. Final DMSO concentration was kept at or below 0.25%. The cell plate was returned to the incubator at 37° C. with 5% CO2 for an additional 24 hours.
(§5) The K562 cell line was cultured in IMDM with 10% FBS. For K562, cells were diluted with full growth media and plated in either a 96-well plate (50,000 cells in 50 uL media per well) or a 384-well plate (8,000-40,000 cells in 45 uL media per well). An 11-point 3-fold serial dilution of the compounds were made in DMSO then diluted in media in an intermediate plate. Compound was transferred from the intermediate plate to the cell plate with the top dose at a final concentration of 10 uM in the well. Final DMSO concentration was kept at or below 0.25%. Final volume was 100 uL for 96-well plate and 50 uL for 384-well plate. The cell plate was then placed in an incubator at 37° C. with 5% CO2 for 24 hours.
(§6) The cells were then gently washed with 50 uL-100 uL Cold Pbs before proceeding to addition of lysis buffer. 30 uL-50 μL of room temperature lysis buffer with DNAse I (and optionally RNAsin) was added to each well. Cells were shaken/mixed thoroughly at room temperature for 5-10 minutes for lysis to take place and then 3 uL-5 μL of room temperature stop solution was added and wells were shaken/mixed again. After 2-5 minutes, the cell lysate plate was transferred to ice for RT-qPCR reaction setup. The lysates could also be frozen at −80° C. for later use.
(§7) In some cases, a direct lysis buffer was used. an appropriate volume of 3× lysis buffer (10 mM tRis, 150 mM NaCl, 1.5%-2.5% Igepal and 0.1-1 U/uL RNAsin, pH 7.4) was directly added to either K562 or A673 cells in media and mixed by pipetting 3 times. The plates were then incubated at room temperature with shaking/rocking for 20-50 minutes to allow for lysis to take place. After this time, the cell lysate plate was transferred to ice to set up for the RT-qPCR reactions. The lysates could also be frozen at −80° C. for later use.
(§8) To set up 10 uL RT-QpcR reactions, cell lysates were transferred to 384-well qPCR plates containing the master mix according to the table below. The plates were sealed, gently vortexed, and spun down before the run. The volumes were adjusted accordingly in some instances where the reaction was carried in 20 µL. The table below summarizes the components of the RT-qPCR reactions:
(§9) The RT-qPCR reaction was performed using a QuantStudio (ThermoFisher) under the following fast cycling conditions. […]

HTT [3] = assay: Gene panel canonical junction qPCR assay, HTT CJ mRNA (Table 7); assay type: cell-based, human; settings: read-out: HTT CJ mRNA decrease IC50
Experimental: as §1, §2, §3

HTT [4] = assay: RT-qPCR splicing assay, HTT AJ/CJ mRNA; assay type: cell-based, human; settings: A673 or K562 cells; for IC50: decrease in canonical junction mRNA; for AC50: increase in alternative junction mRNA
Experimental: as §1, §4, §5, §6, §7, §8, §9

Target C = assay: Gene panel canonical junction qPCR assay, Target C CJ mRNA (Table 7); assay type: cell-based, human; settings: Homo sapiens, read-out: Target C CJ mRNA decrease IC50
Experimental: as §1, §2, §3

SMN2 = assay: Gene panel canonical junction qPCR assay, SMN2 CJ mRNA (Table 7); assay type: cell-based; settings: Homo sapiens, read-out: SMN2 CJ mRNA decrease IC50
Experimental: as §1, §2, §3

| SMILES | IC50 (MYB [1]) [µM] | IC50 (MYB [2]) [µM] | AC50 (MYB [2]) [µM] | IC50 (HTT [3]; Homo sapiens) [µM] | IC50 (HTT [4]; Homo sapiens, 24 h) [µM] | AC50 (HTT [4]; Homo sapiens, 24 h) [µM] | IC50 (Target C) [µM] | IC50 (SMN2) [µM] | IC50 (HTT [3]) [µM] | IC50 (HTT [4]; 24 hours) [µM] | AC50 (HTT [4]; 24 hours) [µM] |
| --- | --- | --- | --- | --- | --- | --- | --- | --- | --- | --- | --- |
| CN(c1ccc2c(n1)OCc1cc(-n3cccn3)ccc1-2)[C@H]1C[C@]2(C)CC[C@](C)(C1)N2 [Compound 180] | 0.1 to 1 | 0.1 to 1 | 0.1 to 1 | < 0.1 | < 0.1 | < 0.1 | 0.1 to 1 | < 0.1 | – | – | – |
| c1cnn(-c2ccc3c(c2)COc2nc(NC4CCNCC4)ccc2-3)c1 [Compound 174] | > 10 | > 10 | > 10 | > 10 | > 10 | > 10 | > 10 | 1 to 10 | – | – | – |
| c1cnn(-c2ccc3c(c2)COc2nc(N4CCC5(CCNC5)CC4)ccc2-3)c1 [Compound 184] | 1 to 10 | 1 to 10 | 1 to 10 | 1 to 10 | 1 to 10 | 1 to 10 | 1 to 10 | 1 to 10 | – | – | – |
| c1cnn(-c2ccc3c(c2)COc2nc(N[C@@H]4C[C@H]5CCC[C@@H](C4)N5)ccc2-3)c1 [Compound 190] | 0.1 to 1 | 0.1 to 1 | 0.1 to 1 | < 0.1 | < 0.1 | 0.1 to 1 | 0.1 to 1 | < 0.1 | – | – | – |
| FC1(F)CC2CC(Nc3ccc4c(n3)OCc3cc(-n5nccn5)ccc3-4)CC1N2 (centres unmarked) [Compound 238, 6,6-difluoro-N-[8-(1,2,3-triazol-2-yl)-6H-isochromeno[3,4-b]pyridin-3-yl]-8-azabicyclo[3.2.1]octan-3-amine] | 1 to 10 | 1 to 10 | 1 to 10 | 0.1 to 1 | 0.1 to 1 | 1 to 10 | 1 to 10 | 1 to 10 | – | – | – |
| CC(C)(C)NC1CCN(c2ccc3c(n2)OCc2cc(-c4cn[nH]c4)ccc2-3)C1 (centres unmarked) [Compound 212] | – | 0.1 to 1 | – | – | < 0.1 | – | – | – | – | – | – |
| CN(c1cnc2c(n1)OCc1cc(-c3cn[nH]c3)ccc1-2)C1CC(C)(C)NC(C)(C)C1 [Compound 138] | – | – | – | – | – | – | 1 to 10 | – | 1 to 10 | 1 to 10 | 1 to 10 |
| CN(c1ccc2c(c1)CCOc1cc(-c3cn[nH]c3)ccc1-2)[C@@H]1C[C@H]2CC[C@@H](C1)N2 [Compound 112] | – | – | – | – | – | – | > 10 | – | – | – | – |
| CCN(c1ccc2c(n1)OCc1cc(-n3cccn3)ccc1-2)[C@@H]1C[C@H]2CCC[C@@H](C1)N2 [Compound 195] | 1 to 10 | 1 to 10 | > 10 | 0.1 to 1 | – | – | 1 to 10 | 0.1 to 1 | – | – | – |
| c1cc2c(cc1-c1cn[nH]c1)COc1nc(N3CCC(NC4CC4)C3)ccc1-2 (centres unmarked) [Compound 211] | – | 0.1 to 1 | – | – | < 0.1 | – | – | – | – | – | – |
| c1cnn(-c2ccc3c(c2)COc2nc(N(C4CC4)[C@@H]4C[C@H]5CC[C@@H](C4)N5)ccc2-3)c1 [Compound 205] | – | – | – | – | 1 to 10 | 0.1 to 1 | – | – | – | – | – |
| c1cc2c(cc1N[C@@H]1C[C@H]3CC[C@@H](C1)N3)CCOc1cc(-c3cn[nH]c3)ccc1-2 [Compound 132] | – | – | – | > 10 | > 10 | > 10 | > 10 | – | – | – | – |
| CN(c1ccc2c(n1)CCOc1cc(-c3cn[nH]c3)ccc1-2)[C@@H]1C[C@H]2CC[C@@H](C1)N2 [Compound 127] | > 10 | > 10 | > 10 | > 10 | > 10 | > 10 | – | > 10 | – | – | – |
| c1cnn(-c2ccc3c(c2)COc2nc(N(C4CC4)[C@@H]4C[C@H]5CCC[C@@H](C4)N5)ccc2-3)c1 [Compound 203] | – | – | – | – | 1 to 10 | 1 to 10 | – | – | – | – | – |
| CC(C)(C)NC1CCN(c2ccc3c(n2)OCc2cc(-n4cccn4)ccc2-3)C1 (centres unmarked) [Compound 213] | – | 1 to 10 | – | – | 0.1 to 1 | – | – | – | – | – | – |
| CN(c1ccc2c(n1)CCOc1cc(-n3cccn3)ccc1-2)[C@@H]1C[C@H]2CC[C@@H](C1)N2 [Compound 128] | – | – | – | > 10 | > 10 | > 10 | > 10 | – | – | – | – |
| c1cnn(-c2ccc3c(c2)COc2nc(N4CCC(NC5CC5)C4)ccc2-3)c1 (centres unmarked) [Compound 214] | – | > 10 | – | – | > 10 | – | – | – | – | – | – |
| CN(c1ccc2c(n1)CCOc1cc(-c3cn[nH]c3)ccc1-2)C1CC(C)(C)NC(C)(C)C1 [Compound 114] | – | – | – | 0.1 to 1 | 0.1 to 1 | < 0.1 | < 0.1 | – | – | – | – |
| Cc1cc(-c2ccc3c(c2)COc2nc(O[C@@H]4C[C@H]5C[C@@H](C4)N5)ccc2-3)ccn1 [Compound 209] | 0.1 to 1 | 0.1 to 1 | 1 to 10 | 0.1 to 1 | – | – | 1 to 10 | 0.1 to 1 | – | – | – |
| CN(c1ccc2c(n1)COc1cc(-n3cccn3)ccc1-2)[C@@H]1C[C@H]2CC[C@@H](C1)N2 [Compound 109] | – | – | – | – | – | – | – | – | – | 0.1 to 1 | 0.1 to 1 |
| CN(c1ccc2c(n1)OCc1cc(-n3cccn3)ccc1-2)[C@H]1[C@@H]2CNC[C@@H]21 [Compound 194] | – | – | – | > 10 | 1 to 10 | 1 to 10 | > 10 | > 10 | – | – | – |
| c1cc2c(cc1-c1cn[nH]c1)OCCc1nc(N[C@@H]3C[C@H]4CC[C@@H](C3)N4)ccc1-2 [Compound 140] | > 10 | > 10 | > 10 | > 10 | > 10 | > 10 | – | > 10 | – | – | – |
| c1cc2c(cc1-c1cn[nH]c1)COc1nc(N3CCC34CCCNC4)ccc1-2 (centres unmarked) [Compound 210] | – | > 10 | – | – | > 10 | – | – | – | – | – | – |
